The results in this text go back to patent US10821100B2, “Triazolone compounds as mPGES-1 inhibitors” (Glenmark Pharmaceuticals S.A., priority 2012, dated 2020).

In this assay the target is T1, Recombinant human mPGES-1 (Homo sapiens, UniProt O14684).
T1 construct: made in house; host or cells: CHO cells (crude microsomal fractions)
T1 sequence (O14684 1-152): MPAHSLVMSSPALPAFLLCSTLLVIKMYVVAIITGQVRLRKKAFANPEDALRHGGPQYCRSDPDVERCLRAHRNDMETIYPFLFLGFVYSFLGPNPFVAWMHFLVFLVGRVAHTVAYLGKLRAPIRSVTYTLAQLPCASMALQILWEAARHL
The assay can be described thus: In-vitro screening of mPGES-1 inhibitors (inhibition of PGE2 formation from PGH2, HTRF detection). Type of assay: biochemical. Particulars: mPGES-1 enzyme; for inhibition at 1 µM: 1 μM test compound, read-out: Percentage inhibition at 1 μM; for inhibition at 10 µM: 10 μM test compound, read-out: Percentage inhibition at 10 μM; for IC50: class symbols. The gist of the method:
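Crude CHO-expressed microsomes (40–60 μg/mL protein) preincubated 10 min with compound in 0.1 M potassium phosphate/2 mM EDTA containing 2.5 mM GSH, 0.5% DMSO final. PGH2 (15 μM) reacted 1 min, stopped with stannous chloride. PGE2 quantified by HTRF, IC50 from nonlinear regression of percent inhibition.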
A general note: Time-resolved FRET reads energy transfer from a long-lived donor to a nearby acceptor.

For the molecule `COc1cc(-n2nc(-c3c(Cl)cccc3C#N)[nH]c2=O)ccc1C(=O)Nc1cccc(C(F)(F)F)c1` [Example-62, 4-(3-(2-Chloro-6-cyanophenyl)-5-oxo-4,5-dihydro-1H-1,2,4-triazol-1-yl)-2-methoxy-N-(3-(trifluoromethyl)phenyl)benzamide], the IC50 was < 50 nM. For the same molecule, where the note is “crude microsomal fractions”, the inhibition at 1 µM was determined as 97.8% and the inhibition at 10 µM came to 98.3%.
Taken in the same sequence, the figures for `COc1cc(-n2nc(-c3cc(CNC(=O)C4CC4)ccc3Cl)[nH]c2=O)ccc1C(=O)Nc1ccc(F)c(C(F)F)c1` [Example-63, 4-(3-(2-Chloro-5-(cyclopropanecarboxamidomethyl)phenyl)-5-oxo-4,5-dihydro-1H-1,2,4-triazol-1-yl)-N-(3-(difluoromethyl)-4-fluorophenyl)-2-methoxybenzamide] were < 50 nM, 92.4% and 94.8%.
Turning to `COc1cc(-n2nc(-c3c(Cl)cccc3Cl)[nH]c2=O)ccc1C(=O)Nc1cc(CNC(=O)C2CC2)ccc1Cl` [Example-64, N-(2-Chloro-5-(cyclopropanecarboxamidomethyl)phenyl)-4-(3-(2,6-dichlorophenyl)-5-oxo-4,5-dihydro-1H-1,2,4-triazol-1-yl)-2-methoxybenzamide], under “crude microsomal fractions”, the inhibition at 1 µM is 28.9% and the inhibition at 10 µM was 63.8%.
In the case of `COc1cc(-n2nc(-c3c(Cl)cccc3Cl)[nH]c2=O)ccc1-c1nc2cc(C(F)(F)F)ccc2[nH]1` [Example-65, 3-(2,6-Dichlorophenyl)-1-(3-methoxy-4-(5-(trifluoromethyl)-1H-benzo[d]imidazol-2-yl)phenyl)-1H-1,2,4-triazol-5(4H)-one], for the setting “crude microsomal fractions”, the inhibition at 1 µM was determined as 75.5% and the inhibition at 10 µM stood at 94.5%.
Consider `COc1cc(-n2nc(-c3cc(CNC(=O)C4CC4)ccc3Cl)[nH]c2=O)ccc1NC(=O)C1CC1` [Example-66, N-(4-Chloro-3-(1-(4-(cyclopropanecarboxamido)-3-methoxyphenyl)-5-oxo-4,5-dihydro-1H-1,2,4-triazol-3-yl)benzyl)cyclopropanecarboxamide], for which the IC50 was > 100 nM. Further, under “crude microsomal fractions”, the inhibition at 1 µM is 87.8% and the inhibition at 10 µM was found to be 98.8%.
With `COc1cc(-n2nc(-c3c(Cl)cccc3Cl)[nH]c2=O)ccc1C(=O)Nc1ccc(S(C)(=O)=O)cc1` [Example-67, 4-(3-(2,6-Dichlorophenyl)-5-oxo-4,5-dihydro-1H-1,2,4-triazol-1-yl)-2-methoxy-N-(4-(methylsulfonyl)phenyl)benzamide], where the note is “crude microsomal fractions”, the inhibition at 1 µM stood at 72.7% and the inhibition at 10 µM came to 96.3%.
In the case of `COc1cc(-n2nc(-c3cc(CNC(=O)C4CC4)ccc3Cl)[nH]c2=O)ccc1C(=O)Nc1cccc(C(F)F)c1` [Example-68, 4-(3-(2-Chloro-5-(cyclopropanecarboxamidomethyl)phenyl)-5-oxo-4,5-dihydro-1H-1,2,4-triazol-1-yl)-N-(3-(difluoromethyl)phenyl)-2-methoxybenzamide], the IC50 is < 50 nM. Under “crude microsomal fractions”, the inhibition at 1 µM was 97.4% and the inhibition at 10 µM turned out to be 96.4%.
Taken in the same sequence, the figures for `COc1cc(-n2nc(-c3cc(S(=O)(=O)NC4CC4)ccc3Cl)[nH]c2=O)ccc1C(=O)Nc1cccc(C(F)(F)F)c1` [Example-69, 4-(3-(2-Chloro-5-(N-cyclopropylsulfamoyl)phenyl)-5-oxo-4,5-dihydro-1H-1,2,4-triazol-1-yl)-2-methoxy-N-(3-(trifluoromethyl)phenyl)benzamide] were > 100 nM, 86.4% and 89.1%.
Turning to `CCn1c(-c2c(Cl)cccc2Cl)nn(-c2ccc(C(=O)Nc3cccc(C(F)(F)F)c3)c(OC)c2)c1=O` [Example-70, 4-(3-(2,6-Dichlorophenyl)-4-ethyl-5-oxo-4,5-dihydro-1H-1,2,4-triazol-1-yl)-2-methoxy-N-(3-(trifluoromethyl)phenyl)benzamide], under “crude microsomal fractions”, the inhibition at 1 µM amounted to 0.55% and the inhibition at 10 µM was 6.63%.
As for `CCn1c(-c2c(F)cccc2Cl)nn(-c2ccc(C#Cc3cccc(Cl)c3F)cc2)c1=O` [Example-71], for the setting “crude microsomal fractions”, the inhibition at 1 µM amounted to 12.9% and the inhibition at 10 µM was 17.9%.
Consider `O=C(Nc1cccc(C(F)(F)F)c1)c1ccc(-n2nc(-c3cc(CNC(=O)C4CC4)ccc3Cl)[nH]c2=O)cc1` [Example-72, 4-(3-(2-Chloro-5-(cyclopropanecarboxamidomethyl)phenyl)-5-oxo-4,5-dihydro-1H-1,2,4-triazol-1-yl)-N-(3-(trifluoromethyl)phenyl)benzamide], for which the IC50 was < 50 nM. In addition, where the note is “crude microsomal fractions”, the inhibition at 1 µM is 99.2%. The inhibition at 3 µM (3 μM test compound, crude microsomal fractions, read-out: Percentage inhibition at 3 μM) was 99%.
As for `COc1cc(-n2nc(-c3c(Cl)cccc3C#N)[nH]c2=O)ccc1C(=O)Nc1ccc(F)c(C(F)(F)F)c1` [Example-73, 4-(3-(2-Chloro-6-cyanophenyl)-5-oxo-4,5-dihydro-1H-1,2,4-triazol-1-yl)-N-(4-fluoro-3-(trifluoromethyl)phenyl)-2-methoxybenzamide], the IC50 is < 50 nM. For the setting “crude microsomal fractions”, the inhibition at 1 µM worked out at 92.4% and the inhibition at 10 µM turned out to be 92.4%.
On to `COc1cc(-c2nn(-c3c(Cl)cccc3Cl)c(=O)[nH]2)ccc1C#Cc1cccc(Cl)c1F` [Example-74], for which the IC50 is 50 to 100 nM. In addition, under “crude microsomal fractions”, the inhibition at 1 µM was 93.2% and the inhibition at 10 µM came to 98.7%.
As for `COc1cc(-c2nn(-c3c(Cl)cccc3Cl)c(=O)[nH]2)ccc1C#Cc1ccc(C(F)(F)F)cc1Cl` [Example-75, 3-(4-((2-Chloro-4-(trifluoromethyl)phenyl)ethynyl)-3-methoxyphenyl)-1-(2,6-dichlorophenyl)-1H-1,2,4-triazol-5(4H)-one], the half-inhibitory concentration (IC50) is < 50 nM. Also, where the note is “crude microsomal fractions”, the inhibition at 1 µM amounted to 99.1% and the inhibition at 10 µM amounted to 98.3%.
In the case of `COc1cc(-c2nn(-c3c(Cl)cccc3Cl)c(=O)[nH]2)ccc1C(=O)Nc1cccc(C(F)(F)F)c1` [Example-76, 4-(1-(2,6-Dichlorophenyl)-5-oxo-4,5-dihydro-1H-1,2,4-triazol-3-yl)-2-methoxy-N-(3-(trifluoromethyl)phenyl)benzamide], the IC50 is < 50 nM. Moreover, where the note is “crude microsomal fractions”, the inhibition at 1 µM turned out to be 95.6% and the inhibition at 10 µM is 95.4%.
Taken in the same sequence, the figures for `COc1cc(-c2nn(-c3c(Cl)cccc3Cl)c(=O)[nH]2)ccc1C(=O)Nc1ccc(F)c(C(F)(F)F)c1` [Example-77, 4-(1-(2,6-Dichlorophenyl)-5-oxo-4,5-dihydro-1H-1,2,4-triazol-3-yl)-N-(4-fluoro-3-(trifluoromethyl)phenyl)-2-methoxybenzamide] were 50 to 100 nM, 93.2% and 98.1%.
Taken in the same sequence, the figures for `O=C(NCc1ccc(Cl)c(-n2nc(-c3ccc(C#Cc4cc(Cl)ccc4Cl)cc3F)[nH]c2=O)c1)C1CC1` [Example-78] were < 50 nM, 99.9% and 99.9%.
Regarding `O=C(NCc1ccc(Cl)c(-n2nc(-c3ccc(C#Cc4ccc(Cl)cc4F)cc3F)[nH]c2=O)c1)C1CC1` [Example-79, N-(4-Chloro-3-(3-(4-((4-chloro-2-fluorophenyl)ethynyl)-2-fluorophenyl)-5-oxo-4,5-dihydro-1H-1,2,4-triazol-1-yl)benzyl)cyclopropanecarboxamide], the IC50 was < 50 nM. Further, where the note is “crude microsomal fractions”, the inhibition at 1 µM was 99.1% and the inhibition at 10 µM was 97.1%.
On the same counts, the results for `O=C(NCc1ccc(Cl)c(-n2nc(-c3ccc(C#Cc4cccc(C(F)(F)F)c4)cc3F)[nH]c2=O)c1)C1CC1` [Example-80, N-(4-Chloro-3-(3-(2-fluoro-4-((3-(trifluoromethyl)phenyl)ethynyl)phenyl)-5-oxo-4,5-dihydro-1H-1,2,4-triazol-1-yl)benzyl)cyclopropanecarboxamide] are < 50 nM, 97% and 97.1%.
Taken in the same sequence, the figures for `O=C(NCc1ccc(Cl)c(-n2nc(-c3ccc(C#Cc4cccc(Cl)c4F)cc3F)[nH]c2=O)c1)C1CC1` [Example-81, N-(4-Chloro-3-(3-(4-((3-chloro-2-fluorophenyl)ethynyl)-2-fluorophenyl)-5-oxo-4,5-dihydro-1H-1,2,4-triazol-1-yl)benzyl)cyclopropanecarboxamide] were < 50 nM, 99.8% and 98%.
`O=C(NCc1ccc(Cl)c(-n2nc(-c3ccc(C#Cc4ccc(C(F)(F)F)cc4Cl)cc3F)[nH]c2=O)c1)C1CC1` [Example-82, N-(4-Chloro-3-(3-(4-((2-chloro-4-(trifluoromethyl)phenyl)ethynyl)-2-fluorophenyl)-5-oxo-4,5-dihydro-1H-1,2,4-triazol-1-yl)benzyl)cyclopropanecarboxamide]: the IC50 is < 50 nM. Further, where the note is “crude microsomal fractions”, the inhibition at 1 µM was determined as 98.3% and the inhibition at 10 µM stood at 99%.
`CC(C)(C)C(=O)NCc1ccc(Cl)c(-c2nn(-c3ccc(Cl)c(Cl)c3)c(=O)[nH]2)c1F` [Example-83, N-(4-Chloro-3-(1-(3,4-dichlorophenyl)-5-oxo-4,5-dihydro-1H-1,2,4-triazol-3-yl)-2-fluorobenzyl)pivalamide]: the IC50 is < 50 nM. For the setting “crude microsomal fractions”, the inhibition at 1 µM came to 97.5% and the inhibition at 10 µM was 99.9%.
Taken in the same sequence, the figures for `CC(C)(C)C(=O)NCc1ccc(Cl)c(-c2nn(-c3ccc(C(F)(F)F)cc3)c(=O)[nH]2)c1F` [Example-84, N-(4-Chloro-2-fluoro-3-(5-oxo-1-(4-(trifluoromethyl)phenyl)-4,5-dihydro-1H-1,2,4-triazol-3-yl)benzyl)pivalamide] were < 50 nM, 98.8% and 99.5%.

By inhibition is commonly meant the percentage by which the read-out fell short of the control. As a reminder, the IC50 is the concentration at which inhibition is half-maximal.
